Test results as given in patent publication US8921373B2, “Compounds having TRPV1 antagonistic activity and uses thereof” (Shionogi & Co., Ltd., priority 2010, dated 2014).

Key:
[1] = Measurement of body temperature increase (rectal body temperature); format: in vivo, rat; conditions: Crl/SD rats, oral, 1 mg/mL at 10 mL/kg
Protocol: Test Animals: Selection of rats (Crl/SD rats, 7 weeks, male) for this study was based on rectal body temperature measured during the morning of the day of dosing. In addition, animals selected for this study were acclimated to both the rectal measurement procedure and to being handled and dosed to minimize spontaneous, stress-induced, increases in body temperature. The study was conducted in the animal care laboratories where the room temperature and humidity were kept. The rats were free to move and food and water during the study. Each rat was numbered with color line on the tail, housed in each cage and permitted the normal range of movement. Immediately before each body temperature was measured, they transferred to a single cage at each measurement. To reduce stress which affected the body temperature, the rats were covered with towels at the measurement. The thermistor probe was then carefully inserted into the rectum of each rat and left in place until the value on the digital display had stabilized.
Assays: On the day before dosing, rectal body temperatures were measured at 9:00, 10:00, 11:00, 12:30, 13:30, 14:30 and 15:30 to familiarize the animals with the measurement procedure prior to administration of the test or control treatments. The rats were also dosed by oral gavage without vehicle at 12:30 to acclimate and familiarized the animals with the handling and dosing procedure.
On the day of dosing, only rats whose rectal body temperatures were within the range of 37.0° C. to 37.7° C. were selected for this study. Rectal body temperatures were measured at 9:00, 10:00 and 11:00. Rats whose rectal body temperatures were over 37.9° C. at 10:00, and were outside the range of 37.0° C. to 37.7° C. at 11:00 were excluded from the study. The selected rats were divided to several groups based on their rectal body temperatures at 11:00. Rectal body temperatures of the selected rats were measured again at 12:30, and any rats whose rectal body temperature was 38.0° C. or greater were excluded from the study.
Following the group assignment, test compounds or vehicle was administrated to the rats. Each test compound was dissolved in 0.5% methylcellurose and the final concentration of the compound was adjusted to 1 mg/mL. Test compound was orally administrated in a volume 10 mL/kg once. 10 mL/kg of vehicle (0.5% methylcellurose) was administered to the vehicle group. The rectal body temperatures were measured 0.5, 1 and 2 hrs after the administration. The study was conducted in the animal care laboratories where the room temperature and humidity were kept.
Body temperature increase (ΔTb) was calculated from the difference from an average of the vehicle group at each time point.

[2] = molecular target: human recombinant TRPV1 (Homo sapiens (Human), UniProt Q8NER1); experiment: TRPV1 Capsaicin-Based Assay (Protocol 2, TRPV1/CHO cells, Fluo-4, FLIPR); format: cell-based; conditions: TRPV1/CHO cells, capsaicin 100 nM final; read-out: IC50 value by the Capsaicin-Based Assay
Outline: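 CHO cells stably expressing human TRPV1 were loaded with 3 μM Fluo-4 for 1 h, then given compounds in HBSS/1 mM CaCl2/20 mM HEPES pH 7.4 with 1% DMSO for 2 min before 100 nM capsaicin (final). FLIPR fluorescence recorded over the full course; curves fitted.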

[3] = tested on: FCA-induced inflammation of the rat hind paw; experiment: Freund's complete adjuvant (FCA) model of inflammatory pain, reversal of hyperalgesia; format: in vivo; conditions: rats
Protocol: Test Animals: Each experiment uses rats weighing between 200-260 g at the start of the experiment. The rats are group-housed and have free access to food and water at all times, except prior to oral administration of a compound of Formula I when food is removed for 16 hours before dosing. A control group acts as a comparison to rats treated with a compound of Formula I. The control group is administered the carrier for the compound of Formula I. The volume of carrier administered to the control group is the same as the volume of carrier and compound of Formula I administered to the test group.
Inflammatory Pain: To assess the actions of the compounds of Formula I on the treatment or prevention of inflammatory pain the Freund's complete adjuvant (“FCA”) model of inflammatory pain is used. […] 24 hour post injection, the animal is assessed for response to noxious mechanical stimuli by determining the PWT, or to noxious thermal stimuli by determining the PWL, as described below. […] Responses to noxious mechanical or thermal stimuli are then determined 1, 3, 5 and 24 hours post administration. […]
Response to Mechanical Stimuli as an Assessment of Mechanical Hyperalgesia: The paw pressure assay can be used to assess mechanical hyperalgesia. For this assay, hind paw withdrawal thresholds (PWT) to a noxious mechanical stimulus are determined using an analgesymeter (Model 7200, commercially available from Ugo Basile of Italy) as described in C. […] PWT is determined once for each rat at each time point and only the affected (ipsilateral) paw is tested.
Response to Thermal Stimuli as an Assessment of Thermal Hyperalgesia: The plantar test can be used to assess thermal hyperalgesia. For this test, hind paw withdrawal latencies (PWL) to a noxious thermal stimulus are determined using a plantar test apparatus (commercially available from Ugo Basile of Italy) following the technique described by K. Hargreaves et al., “A New and Sensitive Method for Measuring Thermal Nociception in Cutaneous Hyperalgesia,” Pain 32(1):77-88 (1988). […] Three latencies are determined at each time point and averaged. […]

human recombinant TRPV1, sequence (Q8NER1 whole entry): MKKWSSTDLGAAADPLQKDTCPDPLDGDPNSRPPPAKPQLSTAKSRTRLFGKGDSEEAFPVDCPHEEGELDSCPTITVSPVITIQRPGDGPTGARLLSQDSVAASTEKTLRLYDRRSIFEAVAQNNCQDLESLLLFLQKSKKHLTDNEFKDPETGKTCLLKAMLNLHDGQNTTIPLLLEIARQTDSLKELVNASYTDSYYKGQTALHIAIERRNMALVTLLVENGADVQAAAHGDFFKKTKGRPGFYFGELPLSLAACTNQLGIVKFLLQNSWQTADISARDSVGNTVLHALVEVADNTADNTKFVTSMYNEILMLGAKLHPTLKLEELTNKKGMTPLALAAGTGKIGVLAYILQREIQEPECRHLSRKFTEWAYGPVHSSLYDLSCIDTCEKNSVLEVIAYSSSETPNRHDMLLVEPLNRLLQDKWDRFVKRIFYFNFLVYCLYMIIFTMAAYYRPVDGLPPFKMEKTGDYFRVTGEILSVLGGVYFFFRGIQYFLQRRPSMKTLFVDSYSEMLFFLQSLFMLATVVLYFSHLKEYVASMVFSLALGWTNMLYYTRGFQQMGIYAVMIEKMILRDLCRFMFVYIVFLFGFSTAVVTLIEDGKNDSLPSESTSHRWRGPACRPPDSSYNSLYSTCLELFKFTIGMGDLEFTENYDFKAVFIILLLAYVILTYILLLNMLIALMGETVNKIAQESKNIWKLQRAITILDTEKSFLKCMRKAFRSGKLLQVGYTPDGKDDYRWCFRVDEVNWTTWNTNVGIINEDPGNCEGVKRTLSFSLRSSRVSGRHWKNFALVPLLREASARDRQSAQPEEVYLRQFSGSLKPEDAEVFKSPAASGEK

Body temperature increase [1]: less than 0.5 °C | IC50 [2]: ≤ 50 nM
Compound: Cc1cc(NC(=O)N2CCC(F)(c3ncc(C[C@H](O)CO)cc3F)CC2)ccc1C(F)(F)F [ACQ, (S)-4-(5-(2,3-dihydroxypropyl)-3-fluoropyridin-2-yl)-4-fluoro-N-(3-methyl-4-(trifluoromethyl)phenyl)piperidine-1-carboxamide]
Percentage reversal of hyperalgesia, % Reversal (3 mg/Kg, 3 hours post administration) [3]: 41.7%
